Source: patent US6720324B2, “Selective melanin concentrating hormone-1 (MCH1) receptor antagonists and uses thereof” (Synaptic Pharmaceutical Corporation, priority 2000, dated 2004)
Read-outs that look alike come from different tables or passages of the source. Ends that are not written are not given here.

Columns and labels:
human MCH1 receptor = human MCH1 receptor (Homo sapiens, UniProt Q99705); assay: Functional assay: intracellular calcium mobilization (antagonist potency Kb); format: cell-based; parameters: expressed in transfected cells; host or cells: COS-7 cells, transient, DEAE-dextran, plasmid pEXJ.HR-TL231 (ATCC 203197)
Description: Intracellular calcium mobilization assays for the MCH1 receptor were carried out using plasmid pEXJ.HR-TL231 (ATCC Accession No. 203197). COS-7 cells were transiently transfected with DNA encoding the MCH1 receptor utilizing the DEAE-dextran method as described above. The intracellular free calcium concentration was measured by fluorescent imaging using the calcium sensitive fluorscent dye Fluo-3. COS-7 cells expressing the human MCH1 receptor were seeded onto sterile 96 well plates, washed with Hank's balanced salt solution (HBSS), containing 20 mM HEPES, 2.5 mM probenecid, and 0.1% BSA, and loaded with the same buffer containing 3.8 μM Fluo-3 for 1 hour at 37° C. After washing with HBSS to remove the fluo-3 solution, cells were equilibrated for 10 minutes.

human NPY1 = molecular target: T1, human NPY1 (Homo sapiens, UniProt P25929); assay: Radioligand binding assay, cloned receptor; details: Table 2; read-out: hNPY1 Ki
T1 construct: expressed in transfected cells
T1 sequence (P25929 1-384): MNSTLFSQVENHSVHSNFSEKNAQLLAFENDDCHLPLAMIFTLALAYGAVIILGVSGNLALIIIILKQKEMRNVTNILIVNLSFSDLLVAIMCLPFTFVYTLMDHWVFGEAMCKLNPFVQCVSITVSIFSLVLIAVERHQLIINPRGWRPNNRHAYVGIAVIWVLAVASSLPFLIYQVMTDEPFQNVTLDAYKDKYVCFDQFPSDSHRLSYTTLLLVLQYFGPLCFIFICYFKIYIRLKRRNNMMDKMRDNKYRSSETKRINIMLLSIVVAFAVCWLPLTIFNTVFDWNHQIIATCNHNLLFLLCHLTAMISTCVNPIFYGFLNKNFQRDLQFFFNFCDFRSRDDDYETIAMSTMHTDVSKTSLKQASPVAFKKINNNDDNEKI
Description: For binding assays, pellets of transfected cells are suspended in ice-cold buffer (20 mM Tris.HCl, 5 mM EDTA, pH 7.4) and homogenized by sonication for 7 sec. The cell lysates are centrifuged at 200×g for 5 min at 4° C. The supernatants are then centrifuged at 40,000×g for 20 min at 4° C. The resulting pellets are washed once in the homogenization buffer and suspended in binding buffer (see methods for radioligand binding). Protein concentrations are determined by the method of Bradford (1976) using bovine serum albumin as the standard. Binding assays are usually performed immediately, however it is possible to prepare membranes in batch and store frozen in liquid nitrogen for future use.
The methods to obtain the cDNA of the human NPY1, NPY5, GALR1, GALR2, and GALR3 and rat 5-HT2C receptors, express said receptors in heterologous systems, and carry out assays to determine binding affinity are described in the following publications and above: human NPY1 (Larhammar et al., 1992), human NPY5 (U.S. Pat. No. 5,602,024, the disclosure of which is hereby incorporated by reference in its entirety into this application), human Gal1 (Habert-Ortoli et al., 1994), human Gal2 (Smith et al., 1997), human Gal3 (Smith et al., 1998), and rat 5-HT2C (Julius et al., 1988).

G4F-7 cells = details: cited from earlier work; for Ki: inhibition of radioiodinated [Phe13,Tyr19]-MCH binding
[1] = Table 1, cloned human MCH1 receptor, functional assay, read-out: Kb (nM) hMCH1
[2] = Table 2, antagonist potency at the human MCH1 receptor, read-out: hMCH1 Kb

human MCH1 receptor, sequence (Q99705 whole entry): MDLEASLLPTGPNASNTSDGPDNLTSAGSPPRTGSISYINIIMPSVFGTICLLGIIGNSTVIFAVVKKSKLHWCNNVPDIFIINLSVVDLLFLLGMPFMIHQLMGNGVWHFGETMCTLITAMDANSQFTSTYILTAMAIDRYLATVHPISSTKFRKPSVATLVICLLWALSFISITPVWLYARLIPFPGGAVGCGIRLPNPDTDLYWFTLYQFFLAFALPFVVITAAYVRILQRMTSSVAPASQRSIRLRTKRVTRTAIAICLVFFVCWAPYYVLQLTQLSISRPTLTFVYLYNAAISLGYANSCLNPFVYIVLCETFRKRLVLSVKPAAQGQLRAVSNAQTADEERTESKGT

Row | Kb (human MCH1 receptor; [1]) | Kb (human MCH1 receptor; [2]) | Ki (human NPY1) | Compound | Ki (G4F-7 cells) | also measured
1 | 126 nM | 126 nM | > 50000 nM | CCN1c2ccc(/C=C3\SC(=S)NC3=O)cc2C(C)=CC1(C)C [Example 25] |  | 
2 | 60 nM | 60 nM | > 50000 nM | O=C(CCCN1CCC(NC(=O)c2ccccc2)CC1)c1ccc(Cl)cc1 [Example 28, 1-[3-(4-CHLOROBENZOYL)]PROPYL-4-BENZAMIDOPIPERIDINE] |  | 
3 |  |  |  | Melanin-concentrating hormone [native MCH] | 12 nM | 
4 |  |  |  | [Phe^13,Tyr^19]-MCH: radioiodinated MCH analogue; the ligand retained biological activity and exhibited specific binding to a variety of cell lines |  | Kd (G4F-7 cells; radioiodinated ligand, G4F-7 cells): 0.118 nM
5 |  |  |  | rat ANF: rat ANF, weakly inhibited binding of the radioiodinated MCH analogue (SLRRSSCFGGRIDRIGAQSGLGCNSFRY; ends and bridges not checked; cysteine pairing not given here; UniProt P01161 123-150, looked up) | 116 nM | 
6 |  |  |  | α-MSH |  | inhibition of binding (G4F-7 cells; radioiodinated [Phe13,Tyr19]-MCH binding): not inhibited
